≈ marks a conversion by molar mass, not a printed value.
Key:
Format in all cases: functional
[1] = tested on: Rhizopus arrhizus; assay: Antifungal activity against Rhizopus oryzae NBRC 31005 assessed as reduction in fungal growth incubated for 24 hrs by CLSI broth microdilution method
[2] = tested on: Aspergillus fumigatus; assay: Antifungal activity against Aspergillus fumigatus NBRC 96918 assessed as reduction in fungal growth incubated for 48 hrs by CLSI broth microdilution method
[3] = tested on: Candida albicans; assay: Antifungal activity against Candida albicans NBRC1594 assessed as reduction in fungal growth incubated for 24 hrs by CLSI broth microdilution method
[4] = tested on: Cryptococcus neoformans; assay: Antifungal activity against Cryptococcus neoformans ATCC 14116 assessed as reduction in fungal growth incubated for 72 hrs by CLSI broth microdilution method

C[C@@H]1[C@H](O)[C@@H](C)/C=C/C=C/C=C/C=C/C=C/C=C/C=C/[C@H](O[C@@H]2O[C@H](C)[C@@H](O)[C@H](N)[C@@H]2O)C[C@@H]2O[C@](O)(C[C@@H](O)C[C@@H](O)[C@H](O)CC[C@@H](O)C[C@@H](O)CC(=O)O[C@H]1C)C[C@H](O)[C@H]2C(=O)O [AMPHOTERICIN B]
MIC90 [1]: 1 µg/mL (≈ 1.08 µM) | MIC90 [2]: 2 µg/mL (≈ 2.16 µM) | MIC90 [3]: 0.5 µg/mL (≈ 0.541 µM) | MIC90 [4]: 1 µg/mL (≈ 1.08 µM)
